Experiments:
[1] = Permeability (transport study) across bEnd3 monoculture model; conditions: mouse
Procedure: (§2) For the generation of mono-culture models, ECV304 or bEnd3 cells were seeded on the upper surface of the membrane in Polyester Transwell inserts (0.4 μM pore size, 6.5 mm diameter, 24 well, Costar, Kennebunk, ME, USA) at a density of 5 × 10^4 and 8 × 10^4/cm^2, respectively. […] The culture medium (0.25 ml in the apical compartment and 1 ml in the basolateral compartment to avoid hydrostatic pressure) was replenished every day.
(§3) On day 5~7 after seeding cells, the TEER across cell layers was measured before initiating the transport study by replacing the medium in the apical compartment with tested compounds dissolved in HBSS. […] At indicated time points of 15, 30, 45 and 60 min, the inserts were transferred into new wells containing fresh HBSS to maintain sink conditions. […] Other compounds were analyzed by liquid chromatography tandem mass spectrometer (LC-MS/MS).
(§4) The cleared volume was determined by dividing the compound amount in basolateral compartment by the compound concentration in apical compartment. The slope of the cumulative clearance versus time was calculated by linear regression analysis and denoted as permeability coefficient (PEall) × surface area of the membrane insert (S, 0.33 cm^2). The PEblank of blank inserts was included to calculate the PEcell for cell layers themselves using the following equation: 1/PEcellS = 1/PEallS—1/PEblankS.

[2] = Permeability (transport study) across ECV304 monoculture model; conditions: human
Procedure: as §2, §3, §4

bEnd3 cell layers = test: Permeability (transport study) across bEnd3 monoculture model
Procedure: as §2, §3, §4

ECV304 cell layers [3] = test: Permeability (transport study) across ECV304 monoculture model
Procedure: as §2, §3, §4

[4] = test system: ECV304 co-cultured with rat glioma C6 cells; test: Permeability to Lucifer yellow in ECV304 co-culture model with C6 cells; type: in vitro ADME, human; conditions: Lucifer yellow 50 μM
Procedure: (§1) For the generation of mono-culture models, ECV304 or bEnd3 cells were seeded on the upper surface of the membrane in Polyester Transwell inserts ([…] pore size, 6.5 mm diameter, 24 well, Costar, Kennebunk, ME, USA) at a density of 5 × 10^4 and 8 × 10^4/cm^2, respectively. For the generation of co-culture models, C6 cells were seeded on the lower surface of the membrane at a density of 5 × 10^4/cm^2 and incubated for 2 h to allow cell attachment before the seeding of ECV304 or bEnd3 cells.

[5] = test system: bEnd3 co-cultured with rat glioma C6 cells; test: Permeability to Lucifer yellow in bEnd3 co-culture model with C6 cells; type: in vitro ADME, mouse; conditions: Lucifer yellow 50 μM
Procedure: as §1

ECV304 cell layers [6] = conditions: cited from earlier work

Row | Papp at 60 min [1] | Papp at 60 min [2] | Compound | also measured
1 | 6.24 ± 0.27 ×10⁻⁶ cm/s | 3.29 ± 0.16 ×10⁻⁶ cm/s | C[C@H]1O[C@@H](O[C@H]2[C@@H](O)C[C@H](O[C@H]3[C@@H](O)C[C@H](O[C@H]4CC[C@@]5(C)[C@H](CC[C@@H]6[C@@H]5C[C@@H](O)[C@]5(C)[C@@H](C7=CC(=O)OC7)CC[C@]65O)C4)O[C@@H]3C)O[C@@H]2C)C[C@H](O)[C@@H]1O [Digoxin, digoxin] | 
2 | 29.7 ± 1.44 ×10⁻⁶ cm/s | 28.4 ± 1.25 ×10⁻⁶ cm/s | CC(C)NCC(O)COc1cccc2ccccc12 (stereo not drawn) [Propranolol, propranolol] | permeability ratio of transcellular marker propranolol to paracellular marker Lucifer yellow (bEnd3 cell layers; bEnd3 cells, monoculture): 1.2; permeability ratio of transcellular marker propranolol to paracellular marker Lucifer yellow (ECV304 cell layers [3]; ECV304 cells, monoculture): 2.5
3 | 26.8 ± 0.68 ×10⁻⁶ cm/s | 24.5 ± 1.61 ×10⁻⁶ cm/s | C=C[C@H]1C[N@@]2CC[C@H]1C[C@@H]2[C@@H](O)c1ccnc2ccc(OC)cc12 [Quinidine, quinidine] | 
4 | 22.3 ± 2.8 ×10⁻⁶ cm/s | 12.4 ± 0.91 ×10⁻⁶ cm/s | COC(=O)c1ccccc1-c1c2ccc(=N)cc-2oc2cc(N)ccc12 [R123, Rhodamine 123] | 
5 |  |  | Lucifer yellow | increase of permeability to Lucifer yellow, co-culture with C6 cells versus monoculture [4]: 2.2 fold; increase of permeability to Lucifer yellow, co-culture with C6 cells versus monoculture [5]: 2 fold; permeability of Lucifer yellow in ECV304 monolayer, published before (ECV304 cell layers [6]): 10.4 ×10⁻⁶ cm/s; permeability to Lucifer yellow (bEnd3 cell layers; bEnd3 monoculture model, Lucifer yellow 50 μM, day 5~7 after seeding, mean ± SD, n = 3): 23.68 ± 1.71 × 10^−6 cm/s; permeability to Lucifer yellow (ECV304 cell layers [3]; ECV304 monoculture model, Lucifer yellow 50 μM, day 5~7 after seeding, mean ± SD, n = 3): 11.17 ± 0.87 × 10^−6 cm/s

Reference: article PMC5653355, “Identification of two immortalized cell lines, ECV304 and bEnd3, for in vitro permeability studies of blood-brain barrier” (PLoS ONE, 2017)
